# What was measured:
# S. cerevisiae = assay: Extracellular acidification assay; format: cell-based; conditions: Saccharomyces cerevisiae, mean ± SEM n = 3
# Excerpt: (§1) It was subsequently evaluated whether or not the carbazoles were able to prevent extracellular acidification of the surrounding media by blocking the pumping activity of the H^+-ATPase within fungal cells.[15] […] The H^+-ATPase requires ATP to transport protons out of fungal cells. Consequently, a decrease in intracellular ATP (iATP) levels will indirectly affect H^+-ATPase activity. […] In all cases, iATP levels were […] in C. albicans cells exposed to carbazoles compared to the untreated control. […] This implies that the carbazoles need to pass the fungal membrane to inhibit the H^+-ATPase and 7, 18 and 19 may have reduced membrane permeability.
# (§2) The ability of S. cerevisiae and C. albicans to acidify the media upon glucose addition was evaluated using the pH sensor dextran (40,000MW)-fluorescein-isothiocyanate as described in Kjellerup et al., 2017^6. Briefly, the cells was starved overnight in 50 mM KCl, pH 6.7 at 4 °C. The cell suspension (Final OD600 of 0.19) was mixed with 1.3 µg/ml dextran (40,000MW)-fluorescein-isothiocyanate, 1.5 % DMSO containing inhibitors and the assay initiated with the addition of 2 % D-(+)-glucose. The rate of media acidification was calculated based on the slope of the fluorescent drop in the first 12 minutes after glucose addition.
# C. albicans = assay: Extracellular acidification assay; format: cell-based; conditions: Candida albicans, mean ± SEM n = 3
# Excerpt: as §1, §2
# C. albicans cells = assay: Intracellular ATP determination; format: cell-based; conditions: compound at 20 µM, 30 minutes, mean ± SEM n = 5
# Excerpt: as §1
# C. albicans cells were transferred to 3 ml of YPD media and grown overnight at 30 °C and 150 rpm. The cells were pelleted at 2000 × g for 2 min. and washed in PBS (Sigma-Aldrich, catalog number 8537) twice before re-suspension to an OD600 of 0.1. Cell suspension (98 µL) and 2 µl compound in DMSO were incubated for 30 minutes at RT. Forty microliters of this suspension was then transferred to a black 96-well plate containing 40 µl BacTiterGlo reagent (Promega, Madison, WI) and the plate was incubated for 15 minutes in the dark at room temperature. Luminescence was read on a SpectraMax X5 (Molecular Devices, Sunnyvale, CA) plate reader with 10 s shake and 0.5 s integration time. A standard curve containing 10, 100 and 1000 nM ATP was prepared for every experiment.
# Pseudomonas aeruginosa = tested on: Pseudomonas aeruginosa; set-up: method as in PMID 25453797, PMID 27167126; conditions: cited from earlier work
# C. glabrata (ATCC 90030) = assay: Time-kill assay; format: cell-based
# Protocol: (§3) Time-kill studies were carried out to investigate whether the antifungal activity observed for 10 was fungistatic or fungicidal. Given the essential nature of fungal H^+-ATPase, it is anticipated that compounds targeting H^+-ATPase activity will promote fungicidal effects.[21]
# (§4) Fig. 7 Time-kill data for C. albicans and C. glabrata cells (1 × 10^5 CFU/ml) incubated with DMSO (final concentration 1%), 1 µM AMB, and 5 or 10 µM of compound 10.
# (§5) C. albicans (SC5314) and C. glabrata (ATCC 90030) cells (1 x 10^5 CFU/ml) were incubated in 10 mL RPMI media at 30 °C with gentle agitation (150 rpm) in the presence of amphotericin B (1 µM) or compound 10 at a concentration of 5 or 10 µM. At the indicated time points (0, 1, 3, 5 and 24 h at 30 °C incubation, 150 rpm), 100-μL aliquots were removed, serially diluted (10-fold) in saline (0.9% NaCl), and plated on YPD agar plates. The resulting CFUs were enumerated after incubation at 30 °C for 48 h. Cells treated with DMSO (1%, v/v) served as a control.
# C. albicans (SC5314) = assay: Time-kill assay; format: cell-based
# Protocol: as §3, §4, §5
Structure (SMILES),IC50 (S. cerevisiae) [µM],IC50 (C. albicans) [µM],iATP (C. albicans cells) [nM],activity in bacteria reported previously (Pseudomonas aeruginosa),exposure time after which fungicidal activity was evident (C. glabrata (ATCC 90030); C. glabrata) [h],"time-kill outcome (fungistatic or fungicidal) (C. glabrata (ATCC 90030); wild-type C. glabrata, 5 or 10 µM, versus 1 µM AMB)",exposure time after which fungicidal activity was evident (C. albicans (SC5314); 10 µM) [h],"time-kill outcome (fungistatic or fungicidal) (C. albicans (SC5314); 5 or 10 µM, versus 1 µM AMB)"
"OC(CN1CCOCC1)Cn1c2ccc(Cl)cc2c2cc(Cl)ccc21 (centres unmarked) [Compound 7, 1-(3,6-dichloro-9H-carbazol-9-yl)-3-morpholinopropan-2-ol]",33.3 ± 0.6,22.2 ± 12.9,93 ± 45,,,,,
"CN1CCN(CC(O)Cn2c3ccc(Cl)cc3c3cc(Cl)ccc32)CC1 (centres unmarked) [Compound 8, 1-(3,6-dichloro-9H-carbazol-9-yl)-3-(4-methylpiperazin-1-yl)propan-2-ol]",11.1 ± 2.1,9.7 ± 6.8,70 ± 25,,,,,
"CCC(C)NCC(O)Cn1c2ccc(Cl)cc2c2cc(Cl)ccc21 (centres unmarked) [Compound 10, 1-(sec-butylamino)-3-(3,6-dichloro-9H-carbazol-9-yl)propan-2-ol]",2.1 ± 1,2.4 ± 1.2,491 ± 79,membrane damaging activity,3,cell death comparable to that observed for amphotericin B,1,cell death comparable to that observed for amphotericin B
CN(C)CCCCn1c2ccc(Cl)cc2c2cc(Cl)ccc21 [Compound 15],16.2 ± 2.6,13.1 ± 7.2,53 ± 10,,,,,
"CN1CCN(CCCn2c3ccc(Cl)cc3c3cc(Cl)ccc32)CC1 [Compound 16, 3,6-dichloro-9-(3-(4-methylpiperazin-1-yl)propyl)-9H-carbazole]",7.3 ± 0.4,9.5 ± 2.5,235 ± 70,,,,,
